In paper PMC12300992, “A Machine Learning Platform for Isoform-Specific Identification and Profiling of Human Carbonic Anhydrase Inhibitors” (Pharmaceuticals, 2025):

Experiments:
[1] = biological target: hCA XII (Homo sapiens, UniProt O43570); experiment: CO2 hydrase stopped-flow inhibition assay, hCA XII; conditions: for experimental activity class hCA XII: Table S2, Ki threshold of 1 µM
Procedure: (§1) The ionic strength was maintained at a constant using 0.1 M Na2SO4 or NaClO4, as these anions are non-inhibitory at the concentration employed. […] Inhibitor stock solutions were prepared at a concentration of 10 mM in 1:1, v/v DMSO/water mixture and were subsequently diluted up to 0.01 nM in the assay buffer. To determine the inhibition constant (Ki), at least seven different inhibitor concentrations were tested. The enzyme and the inhibitor were pre-incubated for 15 min to allow the complete formation of the enzyme-inhibitor complex. Each inhibitor concentration was tested in triplicate, and the values reported throughout the study represent the mean of these replicates. […] These enzyme concentrations were measured by titration with ethoxzolamide and spectrophotometrically for CA I and II.

[2] = biological target: hCA II (Homo sapiens, UniProt P00918); experiment: CO2 hydrase stopped-flow inhibition assay, hCA II; conditions: for experimental activity class hCA II: Table S2, Ki threshold of 1 µM
Procedure: as §1

[3] = biological target: hCA IX (Homo sapiens, UniProt Q16790); experiment: CO2 hydrase stopped-flow inhibition assay, hCA IX; conditions: for experimental activity class hCA IX: Table S2, Ki threshold of 1 µM
Procedure: as §1

[4] = biological target: hCA I (Homo sapiens, UniProt P00915); experiment: CO2 hydrase stopped-flow inhibition assay, hCA I; conditions: for experimental activity class hCA I: Table S2, Ki threshold of 1 µM
Procedure: as §1

[5] = test system: Z mutant (Glu342Lys) of α1-antitrypsin; design: method as in PMID 17918823; conditions: cited from earlier work
[6] = test system: bacterial DNA gyrase B; design: method as in PMID 20045642; conditions: cited from earlier work
[7] = test system: α-amylase; design: method as in PMID 26395057; conditions: cited from earlier work

hCA XII, sequence (O43570 25-354): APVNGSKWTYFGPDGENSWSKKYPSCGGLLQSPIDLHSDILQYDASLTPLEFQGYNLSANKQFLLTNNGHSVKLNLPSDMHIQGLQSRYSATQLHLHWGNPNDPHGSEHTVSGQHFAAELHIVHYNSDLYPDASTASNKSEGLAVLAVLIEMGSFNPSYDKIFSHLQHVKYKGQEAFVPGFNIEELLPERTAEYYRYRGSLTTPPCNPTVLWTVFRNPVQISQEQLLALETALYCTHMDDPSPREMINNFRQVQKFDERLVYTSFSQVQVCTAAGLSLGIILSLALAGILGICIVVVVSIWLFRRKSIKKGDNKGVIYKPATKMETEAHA
hCA I, sequence (P00915 whole entry): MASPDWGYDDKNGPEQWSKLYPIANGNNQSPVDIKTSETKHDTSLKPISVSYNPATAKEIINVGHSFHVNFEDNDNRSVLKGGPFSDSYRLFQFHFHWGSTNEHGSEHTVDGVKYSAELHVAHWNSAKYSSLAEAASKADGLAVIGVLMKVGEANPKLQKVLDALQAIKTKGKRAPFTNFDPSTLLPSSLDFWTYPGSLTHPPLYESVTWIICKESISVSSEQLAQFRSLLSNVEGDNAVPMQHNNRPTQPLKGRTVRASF

Structure (SMILES)	Ki [1]	experimental activity class hCA XII [1]	Ki [2]	experimental activity class hCA II [2]	selectivity for hCA II over hCA I ([2]; hCA II vs hCA I)	Ki [3]	experimental activity class hCA IX [3]	Ki [4]	experimental activity class hCA I [4]	effect on rate of polymerization of Z α1-antitrypsin [5]	bacterial DNA gyrase B inhibition [6]	inhibitory activity against α-amylase [7]
NS(=O)(=O)c1ccc(OCCn2ccnc2)cc1 [Compound 4]	603 nM	Active	6.8 nM	Active	approximately five times more active	2520 nM	Inactive	36.2 nM	Active	–	–	–
NS(=O)(=O)c1ccc(Nc2nc(-c3ccc(O)cc3O)cs2)cc1 [Compound 12]	648 nM	Active	151 nM	Active	–	313 nM	Active	1080 nM	Inactive	reduce the rate of polymerization	inhibitor	promising inhibitory activity
CCOc1ccccc1C(=O)Nc1nc2ccc(S(N)(=O)=O)cc2s1 [Compound 11]	49.4 nM	Active	16.4 nM	Active	–	73.7 nM	Active	666 nM	Active	–	–	–
NS(=O)(=O)c1ccc(CCNC(=O)C/C=C2/NC(=O)c3c(sc4c3CCCC4)N2)cc1 [Compound 2]	30.6 nM	Active	11.6 nM	Active	–	713 nM	Active	1020 nM	Inactive	–	–	–
O=C(Nn1cnnc1)c1cccc(S(=O)(=O)Nc2cc(C(F)(F)F)ccc2Cl)c1 [Compound 3]	> 100000 nM	Inactive	> 100000 nM	Inactive	–	> 100000 nM	Inactive	> 100000 nM	Inactive	–	–	–
O=S(=O)(Nc1cccc(C(F)(F)F)c1)c1cc(Cl)ccc1Cl [Compound 10]	> 100000 nM	Inactive	> 100000 nM	Inactive	–	> 100000 nM	Inactive	31600 nM	Inactive	–	–	–
